The subject of the data set is E. coli DH1 ΔacrAB. The following applies: for biofuel level that inhibited growth: added to pooled culture in M9 minimal medium, aimed at an inhibitory concentration that reduced growth by 25%; for outcome of efflux pump in competition: 2% geranyl acetate, serial dilution competition. On the procedure:
In order to screen the efflux pump library against a variety of biofuels we devised a competition-based strategy to select for pumps that improved biofuel tolerance (FIG. 1A). Cells containing plasmids with individual pumps were grown separately and then pooled so that all individual strains were represented equally. This pooled culture was then grown both with and without biofuel, and maintained through serial dilutions every 10-14 hours over a total of 96 hours. At each dilution time point, plasmids from each culture were isolated and a custom microarray was used to quantify the amount of each efflux pump plasmid present in the culture (Methods).
Pooled culture glycerol stocks were used to inoculate M9 minimal medium with 30 μg/ml kanamycin and 10 μM IPTG. The culture was then divided into tubes to a final volume of 5 ml and biofuel was added directly to the tubes. All conditions were prepared in triplicate. Cultures were grown at 37° C. with orbital shaking at 200 rpm for all experiments.
Every 10-14 hours the cultures were diluted 1:100 into 5 ml of fresh M9 minimal medium with kanamycin, IPTG, and biofuel (where applicable). For the time-course assay, cultures were spun down at the completion of a growth cycle and plasmids were isolated. For end point competition assays, plasmid was isolated from the culture after 72 hours of serial dilution.
Custom microarrays (NimbleGen, Roche, USA) were used to measure the relative quantities of the efflux pumps present in the plasmid DNA isolated from the competition cultures. Arrays were designed so that they contained probes for all HAE1 annotated efflux pumps from all sequenced bacterial genomes. 12×135K arrays were used to allow for 12 experiments per slide.
Plasmid DNA was labeled and hybridized following the protocol for NimbleGen Comparative Genomic Hybridization Microarrays with minor modifications (Supporting Methods). Data were normalized using the standard settings for RMA analysis in the NimbleScan software. Probe values were averaged using a custom Matlab script (Mathworks, Inc.). […] For the positive hybridization control, all library plasmids were prepared individually and combined in vitro in equal proportions. For the negative hybridization control, a plasmid with the same vector backbone as those in the library, but no efflux pump, was isolated from DH1 ΔacrAB. Both hybridization controls were labeled and hybridized to the array using the methods described above.
This required the use of a co-solvent in order to accurately pipette small volumes. In both cases dimethylformamide (DMF) was used as the co-solvent. […] Other biofuels were added directly without the use of a co-solvent.

Entries after “also recorded” stand apart in the source; their conditions may differ. A value given as a limit tells only on which side of the number the result lay.

`CN(C)C=O` [DMF, dimethylformamide]: for the setting “co-solvent amount present in the culture”, the “toxicity limit to E. coli” value was above 0.2%.

Consider `CCCCCC(=O)OCC=C(C)CCC=C(C)CCC=C(C)C` [farnesyl hexanoate], for which the “biofuel level that inhibited growth” value came out at 2.5 % v/v.

On to `C=C(C)[C@H]1CC=C(C)CC1` [limonene], for which the “biofuel level that inhibited growth” value turned out to be 0.025 % v/v.

For `CC1=CCC2CC1C2(C)C` (stereo not drawn) [α-pinene], the “biofuel level that inhibited growth” value stood at 2 % v/v.

B1: YP_957870: Marinobacter aqueolei efflux pump, accession of inner membrane protein, SEQ ID NO:1 (protein, listed as Marinobacter aqueolei)
chain: MINFFISRPVFSWVLAIVAMLAGIMAIFVLPVQRYPSVAPPAVEIQADYPGASADTVSNTVVQVIEQEMTGLDNLLYMGSTADSSGHATVTLTFAAGTDPDIAQVQVQNKLKLAEPRLPEVVRQQGISVEKSSTSFLMVMAFVSTDGRLSKLDIADFISSELAEPIGRVTGIGSVQVFGSEYAMRIWLDPSALTNYGLTVADVSAAIEAQNAQVTAGQLGGLPAVEGQQLNATVTAQTLLTSTEEFRNILLKSMPDGSRVRLGDVARVELGGGAVQIDTFYDGEPAAGLGINLAPGANSLAVTEAVKARLQELEPYFPEGVEIRYPYQTAPFVEASIDAVVTTIIEAIALVVLVMLVFLQSWRATLIPAIAIPVVLLGTFAIMAAFGFSINMLTLFGLVLAIGLLVDDAIVVVENVERVMHEDGLSPMEATRKSMGQIASALIGIGVVLSAVFIPMAFFPGSTGAIYRQFSLSIAGAMVLSVLVALILSPMLCGRILKPTHERTLLQKLFGWFEAGLGRLTRGYVRLVGHTARHAWLYTLAFLGIVGLVAVLFVRLPGGFLPAEDQGFAVVQYQLPAGATQQRTIDTIQVIEDYFMDQDEVQGLFTIAGFSFAGRAQNAGLAFVNLKPWSERDPETQSADAIIQRANRALAGLVRDGRAFAFNLPPIPELGQALGFELRLQDRGAIGHEALMAAQGQLLQLAAESPVLTSVRPNGLADNPRYKVDIDYEKAQALGIEPSEISRLLSVTWGSQYVNDFLHEGRVKRVYVQGDAPFRMLPEDFEAWYLRAANGEMTPLSEVTNGRWEYGSPRLERFNGVPSRQIQGEPAPGYSTGEAMAEVERLIAQLPDGVAGAWSGLSYQERQAGAQASLLYALSALVVFLALAALYESWTIPISVMLAVPLGVLGAVLAAMVRGLPNDVFFQVGILTTVGVTARNAILLVEFARSLEDQGMKLIEATKEAARVRLRPILMTSVAFGMGVLPLAFASGAGATTRIAIGTAVLGGMISATILATFFIPLFYVVVRRITDFLSGSRDQDDSAAAAPGRANGGVADDR
For B1, the “outcome of efflux pump in competition” value is “increase survival”.

B2: NP_250708: Pseudomonas aeruginosa PA01 efflux pump, accession of inner membrane protein, SEQ ID NO:4 (protein, listed as Pseudomonas aeruginosa)
chain: MARFFIDRPVFAWVISLLIVLAGVLAIRFLPVAQYPDIAPPVVNVSASYPGASAKVVEEAVTAIIEREMNGAPGLLYTKATSSTGQASLTLTFRQGVNADLAAVEVQNRLKIVESRLPESVRRDGIYVEKAADSIQLIVTLTSSSGRYDAMELGEIASSNVLQALRRVEGVGKVETWGAEYAMRIWPDPAKLTSMNLSASDLVNAVRRHNARLTVGDIGNLGVPDSAPISATVKVDDTLVTPEQFGEIPLRIRADGGAIRLRDVARVEFGQSEYGFVSRVNQMTATGLAVKMAPGSNAVATAKRIRATLDELSRYFPEGVSYNIPYDTSAFVEISIRKVVSTLLEAMLLVFAVMYLFMQNFRATLIPTLVVPVALLGTFTVMLGLGFSINVLTMFGMVLAIGILVDDAIIVVENVERLMAEEGLSPHDATVKAMRQISGAIVGITVVLVSVFVPMAFFSGAVGNIYRQFAVTLAVSIGFSAFLALSLTPALCATLLRPIDADHHEKRGFFGWFNRAFLRLTGRYRNAVAGILARPIRWMLVYTLVIGVVALLFVRLPQAFLPEEDQGDFMIMVMQPEGTPMAETMANVGDVERYLAEHEPVAYAYAVGGFSLYGDGTSSAMIFATLKDWSERREASQHVGAIVERINQRFAGLPNRTVYAMNSPPLPDLGSTSGFDFRLQDRGGVGYEALVKARDQLLARAAEDPRLANVMFAGQGEAPQIRLDIDRRKAETLGVSMDEINTTLAVMFGSDYIGDFMHGSQVRKVVVQADGAKRLGIDDIGRLHVRNEQGEMVPLATFAKAAWTLGPPQLTRYNGYPSFNLEGQAAPGYSSGEAMQAMEQLMQGLPEGIAHEWSGQSFEERLSGAQAPALFALSVLIVFLALAALYESWSIPLAVILVVPLGVLGALLGVSLRGLPNDIYFKVGLITIIGLSAKNAILIIEVAKDHYQEGMSLLQATLEAARLRLRPIVMTSLAFGFGVVPLALSSGAGSGAQVAIGTGVLGGIVTATVLAVFLVPLFFLVVGRLFRLRKAPRTGNSPQIPTEQA
Turning to B2, the “outcome of efflux pump in competition” value was “survived the competition”.

B3: NP_745594: Pseudomonas putida KT2440 efflux pump, accession of inner membrane protein, SEQ ID NO:3 (protein, listed as Pseudomonas putida)
chain: MPQFFIDRPVFAWVVALFILLAGALAIPQLPVAQYPNVAPPQVEIYAVYPGASAATMDESVVSLIEQELNGADNLLYFESQSSLGSATITATFAPGTHPDLAQVDVQNRLKVVESRLPRPVTQQGLQVEKVSTGFLLLATLTSEDGKLDETALSDILARNVMDEIRRLKGVGKAQLYGSERAMRIWIDPRKLIGFNLTPNDVAEAIAAQNAQVAPGSIGDLPSRSTQEITANVVVKGQLSSPDEFAAIVLRANPDGSTVTIGDVARVEIGAQEYQYGTRLNGKPATAFSVQLSPGANAMETATLVRAKMQDLARYFPEGVKYDIPYDTSPFVKVSIEQVINTLFEAMLLVFAVMFLFLQNLRYTLIPTLVVPVALMGTFAVMLAMGFSVNVLTLFGMVLAIGILVDDAIVVVENVERIMAEEGLPPKQATRKAMGQISGAIVGITLVLVAVFLPMAFMQGSVGVIYQQFSLSMAVSILFSAFLALSLTPALCATLLKPVAKGEHHERKGFFGWFNRRFESMSNGYQRWVVQALKRSGRYLLVYAVLLAVLGYGFSQLPTAFLPTEDQGYTITDIQLPPGASRMRTEQVAAQIEAHNAEEPGVGNTTLILGFSFSGSGQNAALAFTTLKDWSERGADDSAQSIADRATMAFTQLKDAIAYSVLPPPIDGLGESTGFEFRLQDRGGMGHAELMAARDQLLESASKSKVLTNVREASLAESPQVQLEIDRRQANALGVSFADIGTVLDVAVGSSYVNDFPNQGRMQRVVVQAEGDQRSQVEDLLNIHVRNDSGKMVPLGAFVQARWVSGPVQLTRYNGYPAVSISGEPAAGYSSGEAMAEVERLVAQLPAGTGLEWTGLSLQERLSGSQAPLLMALSLLVVFLCLAALYESWSIPTAVLLVVPLGVLGAVLAVTLRGMPNDVFFKVGLITLIGLSAKNAILIIEFAKHLVDQGVDAADAAVQAARLRLRPIVMTSLAFILGVVPLAIASGASSASQQAIGTGVIGGMLSATLAVVFVPVFFVVVMRLSGRRQAHDSDGQPVPRES
For the molecule B3, the “outcome of efflux pump in competition” value is on record as “survived the competition”.

B4: YP_692684: Alcanivorax borkumensis SK2 efflux pump, accession of inner membrane protein, SEQ ID NO:2 (protein, listed as Alcanivorax borkumensis)
chain: MARFFIDRPIFAWVIAIIMMMAGALAIYTLPIEQYPTVAPPQVSIAGNYPGASAKTVEDSVTQVIEQQMNGIDNLLYMSSSSDSFGNAAVNLTFAPGTDPDIAQVQVQNKLQLATPLLPQEVQQQGMQVTKSSDSFLMVAGFTSEDGSLSRADLADYVASNVQDPVSRVPGVGQIQLFGSPYAMRVWLDPNKLNKFDLTPQDVTQTIEVQNNQVASGQLGGAPAVEGQQLNATIIAQTRLEDVDQFENILLKVNPDGSRVFLKDVARVELAAQNYDVQGRYNGQPAAGLAISLATGANALDTAEALRARLAELQPYFPDKMEMVFPYDTTPFVSISIEEVVHTLFEAIILVFLVMYLFLQNFRATLIPTLAVPVVLLGTFAVLAAFGFSINTLTMFGMVLAIGLLVDDAIVVVENVERVMHEEGLPPKEATRKSMGQITGALVGIALVLSAVFVPMAFFPGSTGAIYRQFSITIVSAMVLSVLVALILTPALCATMLKAKDSEHQTDHGFFGWFNRTFDKSSRRYQGSVEKILGRRGRYLFIYVVIVGVLGFSFMRLPSSFLPEEDQGILFTLVTLPAGSTQEQTVKVLEKMEDYYLNEEASAVDGLFTVAGFSFTGRGQNAGMAFVNLKDWSERDLSVDGADNVVARAMGYFSTIREAMMFALNPPSIPELGNASGFDFQLLDQSGQGHEALIQARNQMLGMAAQDPRLAGVRPNGLEDSPQYQIDIDQQKAKALGLSISDINSTLQIAWGSSYVNNFVDRGRVKRVYVQADAPYRMLPENVNDWFVRNNQGKMVPFSTFATGHWTYGSPKLERYNGVSSVNIQGNAAPGYSTGDAMDAMEELSAKLPAGFGFEWTGMSYQERQSGDQAPALYVISLLVVFLCLAALYESWSIPFAVMLVVPLGILGAVLAATFRDLNNDVFFQVGLLTTIGLSAKNAILIAEFALELEQKGEHLLKATLEAVRMRLRPILMTSLAFMLGVTPLMISTGAGAGARNAIGTGVFGGMLTATVLAIFFIPLFYVAVRKLSGVPLDGKKKGKE
On to B4, for which the “outcome of efflux pump in competition” value is “increase survival; also recorded: best pump”.

These data come from patent US9428726B2, “Modified host cells with efflux pumps” (priority 2010, dated 2016).
